# According to patent US9243001B2, “Substituted benzene compounds” (Epizyme, Inc., priority 2013, dated 2016):
# Target: T1, wild-type EZH2 (PRC2 enzyme) (Homo sapiens, UniProt Q15910)
# T1 construct: made in house; host or cells: Spodoptera frugiperda (sf9) cells, baculovirus
# Experiment: PRC2 enzyme assay on peptide substrates (wild-type EZH2)
# Format: biochemical
# Conditions: wild-type PRC2 enzyme 4 nM, H3K27me0 peptide substrate, 3H-SAM Flashplate; read-out: WT EZH2 IC50
# Text: General Materials. S-adenosylmethionine (SAM), S-adenosylhomocyteine (SAH), bicine, KCl, Tween20, dimethylsulfoxide (DMSO) and bovine skin gelatin (BSG) were purchased from Sigma-Aldrich at the highest level of purity possible. Dithiothreitol (DTT) was purchased from EMD Millipore. ^3H-SAM was purchased from American Radiolabeled Chemicals with a specific activity of 80 Ci/mmol. 384-well streptavidin Flashplates were purchased from PerkinElmer.
# Substrates. Peptides representative of human histone H3 residues 21- 44 containing either an unmodified lysine 27 (H3K27me0) or dimethylated lysine 27 (H3K27me2) are synthesized with a C-terminal G(K-biotin) linker-affinity tag motif and a C-terminal amide cap by 21st Century Biochemicals. The peptides are high-performance liquid chromatography (HPLC) purified to greater than 95% purity and confirmed by liquid chromatography mass spectrometry (LC-MS). The sequences are listed below.
# Recombinant PRC2 Enzymes. Human PRC2 enzymes were purified as 4-component enzyme complexes co-expressed in Spodoptera frugiperda (sf9) cells using a baculovirus expression system. The subunits expressed were wild-type EZH2 (NM_004456) or EZH2 Y641F, N, H, S or C mutants generated from the wild-type EZH2 construct, EED (NM_003797), Suz12 (NM_015355) and RbAp48 (NM_005610). The EED subunit contained an N-terminal FLAG tag that was used to purify the entire 4-component complex from sf9 cell lysates. The purity of the complexes met or exceeded 95% as determined by SDS-PAGE and Agilent Bioanalyzer analysis. Concentrations of enzyme stock concentrations (generally 0.3-1.0 mg/mL) was determined using a Bradford assay against a bovine serum albumin (BSA) standard.
# General Procedure for PRC2 Enzyme Assays on Peptide Substrates. The assays were all performed in a buffer consisting of 20 mM bicine (pH=7.6), 0.5 mM DTT, 0.005% BSG and 0.002% Tween20, prepared on the day of use. Compounds in 100% DMSO (1 μL) were spotted into polypropylene 384-well V-bottom plates (Greiner) using a Platemate 2×3 outfitted with a 384-channel pipet head (Thermo). DMSO (1 μL) was added to columns 11, 12, 23, 24, rows A -H for the maximum signal control, and SAH, a known product and inhibitor of PRC2 (1 μL) was added to columns 11,12, 23, 24, rows I -P for the minimum signal control. A cocktail (40 μL) containing the wild-type PRC2 enzyme and H3K27me0 peptide or any of the Y641 mutant enzymes and H3K27me2 peptide was added by Multidrop Combi (Thermo). The compounds were allowed to incubate with PRC2 for 30 min at 25° C., then a cocktail (10 μL) containing a mixture of non-radioactive and ^3H-SAM was added to initiate the reaction (final volume=51 μL). In all cases, the final concentrations were as follows: wild-type or mutant PRC2 enzyme was 4 nM, SAH in the minimum signal control wells was 1 mM and the DMSO concentration was 1%. The assays were stopped by the addition of non-radioactive SAM (10 μL) to a final concentration of 600 μM, which dilutes the ^3H-SAM to a level where its incorporation into the peptide substrate is no longer detectable. 50 μL of the reaction in the 384-well polypropylene plate was then transferred to a 384-well Flashplate and the biotinylated peptides were allowed to bind to the streptavidin surface for at least 1 h before being washed three times with 0.1% Tween20 in a Biotek ELx405 plate washer. The plates were then read in a PerkinElmer TopCount platereader to measure the quantity of ^3H-labeled peptide bound to the Flashplate surface, measured as disintegrations per minute (dpm) or alternatively, referred to as counts per minute (cpm).
# Where dpm=disintegrations per minute, cmpd=signal in assay well, and min and max are the respective minimum and maximum signal controls.
# Where top and bottom are the normally allowed to float, but may be fixed at 100 or 0 respectively in a 3-parameter fit. The Hill Coefficient normally allowed to float but may also be fixed at 1 in a 3-parameter fit. […]
# T1 sequence (Q15910 1-751 isoform Q15910-2): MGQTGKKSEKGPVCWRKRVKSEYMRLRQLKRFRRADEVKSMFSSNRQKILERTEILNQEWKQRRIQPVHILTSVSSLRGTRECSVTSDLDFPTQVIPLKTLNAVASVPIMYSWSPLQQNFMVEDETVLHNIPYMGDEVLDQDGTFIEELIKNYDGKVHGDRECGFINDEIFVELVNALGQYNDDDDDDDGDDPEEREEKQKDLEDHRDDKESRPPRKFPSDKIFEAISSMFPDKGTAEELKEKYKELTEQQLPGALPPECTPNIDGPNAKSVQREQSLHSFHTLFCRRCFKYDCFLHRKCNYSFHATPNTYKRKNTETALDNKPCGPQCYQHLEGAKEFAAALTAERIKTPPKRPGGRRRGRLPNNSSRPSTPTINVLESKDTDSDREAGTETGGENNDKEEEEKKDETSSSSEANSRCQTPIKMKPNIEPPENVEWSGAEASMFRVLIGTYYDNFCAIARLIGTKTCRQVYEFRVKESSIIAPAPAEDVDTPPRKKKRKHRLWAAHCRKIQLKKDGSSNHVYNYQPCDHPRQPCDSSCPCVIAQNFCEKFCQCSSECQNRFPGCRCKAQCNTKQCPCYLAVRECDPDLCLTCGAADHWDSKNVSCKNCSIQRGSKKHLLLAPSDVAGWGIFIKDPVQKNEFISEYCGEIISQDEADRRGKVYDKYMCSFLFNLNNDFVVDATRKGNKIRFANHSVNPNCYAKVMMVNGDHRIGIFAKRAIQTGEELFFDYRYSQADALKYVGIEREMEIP
# T1 sequence (O75530 whole entry partner): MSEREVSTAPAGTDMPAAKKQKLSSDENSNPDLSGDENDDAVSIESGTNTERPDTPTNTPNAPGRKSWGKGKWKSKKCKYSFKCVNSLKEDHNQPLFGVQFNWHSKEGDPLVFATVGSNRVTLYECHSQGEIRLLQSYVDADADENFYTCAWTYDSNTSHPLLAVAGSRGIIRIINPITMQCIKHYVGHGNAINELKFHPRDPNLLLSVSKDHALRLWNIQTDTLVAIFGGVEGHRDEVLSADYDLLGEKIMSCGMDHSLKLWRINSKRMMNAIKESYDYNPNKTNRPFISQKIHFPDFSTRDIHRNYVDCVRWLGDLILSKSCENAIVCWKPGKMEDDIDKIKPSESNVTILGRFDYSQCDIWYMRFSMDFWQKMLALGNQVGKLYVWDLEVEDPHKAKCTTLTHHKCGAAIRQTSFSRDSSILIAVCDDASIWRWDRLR
# T1 sequence (Q15022 whole entry partner): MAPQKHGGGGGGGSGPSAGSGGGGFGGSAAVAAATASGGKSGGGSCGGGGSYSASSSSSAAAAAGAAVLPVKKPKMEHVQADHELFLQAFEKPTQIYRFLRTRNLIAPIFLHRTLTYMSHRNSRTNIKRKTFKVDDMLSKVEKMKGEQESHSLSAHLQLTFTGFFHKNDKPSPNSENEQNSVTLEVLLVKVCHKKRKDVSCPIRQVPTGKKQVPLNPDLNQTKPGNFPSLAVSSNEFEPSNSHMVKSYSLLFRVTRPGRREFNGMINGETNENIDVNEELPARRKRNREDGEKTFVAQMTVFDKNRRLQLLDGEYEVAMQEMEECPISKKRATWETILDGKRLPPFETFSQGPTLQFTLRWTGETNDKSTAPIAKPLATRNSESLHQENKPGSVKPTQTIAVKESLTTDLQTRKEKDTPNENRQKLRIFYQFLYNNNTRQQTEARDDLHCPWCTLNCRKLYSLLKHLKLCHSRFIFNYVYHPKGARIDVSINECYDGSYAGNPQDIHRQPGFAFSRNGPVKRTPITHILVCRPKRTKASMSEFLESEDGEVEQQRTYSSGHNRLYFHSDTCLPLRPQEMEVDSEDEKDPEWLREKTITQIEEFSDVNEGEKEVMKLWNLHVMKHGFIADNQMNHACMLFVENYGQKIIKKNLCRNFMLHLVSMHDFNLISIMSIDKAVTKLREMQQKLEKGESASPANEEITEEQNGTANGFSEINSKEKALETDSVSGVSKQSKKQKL
# T1 sequence (Q09028 whole entry partner): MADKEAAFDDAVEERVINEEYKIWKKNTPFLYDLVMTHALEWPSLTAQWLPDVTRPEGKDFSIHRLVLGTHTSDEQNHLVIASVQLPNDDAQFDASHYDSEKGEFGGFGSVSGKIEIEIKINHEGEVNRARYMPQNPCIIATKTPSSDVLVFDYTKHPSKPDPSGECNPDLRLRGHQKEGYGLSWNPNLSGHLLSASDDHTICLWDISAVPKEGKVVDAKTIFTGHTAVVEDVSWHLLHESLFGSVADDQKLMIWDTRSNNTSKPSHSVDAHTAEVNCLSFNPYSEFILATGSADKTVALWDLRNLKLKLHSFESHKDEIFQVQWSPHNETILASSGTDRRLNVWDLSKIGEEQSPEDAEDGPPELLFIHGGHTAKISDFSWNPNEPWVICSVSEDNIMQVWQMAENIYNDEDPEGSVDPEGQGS
row,SMILES,IC50
1,"CCN(c1cc(Cl)cc(C(=O)NCc2nccs2)c1C)C1CCOCC1 [Compound 24, 5-chloro-3-(ethyl(tetrahydro-2H-pyran-4-yl)amino)-2-methyl-N-(thiazol-2-ylmethyl)benzamide]",> 50 µM
2,"CCN(c1cc(Cl)cc(C(=O)NCc2cn(C)cn2)c1C)C1CCOCC1 [Compound 25, 5-chloro-3-(ethyl(tetrahydro-2H-pyran-4-yl)amino)-2-methyl-N-((1-methyl-1H-imidazol-4-yl)methyl)benzamide]",7.82 µM
3,"CCN(c1cc(Cl)cc(C(=O)NCc2cn3ccsc3n2)c1C)C1CCOCC1 [Compound 26, 5-chloro-3-(ethyl(tetrahydro-2H-pyran-4-yl)amino)-N-(imidazo[2,1-b]thiazol-6-ylmethyl)-2-methylbenzamide]",> 50 µM
4,"CCN(c1cc(Cl)cc(C(=O)NCc2cnn(C)c2C)c1C)C1CCOCC1 [Compound 27, 5-chloro-N-((1,5-dimethyl-1H-pyrazol-4-yl)methyl)-3-(ethyl(tetrahydro-2H-pyran-4-yl)amino)-2-methylbenzamide]",> 50 µM
5,"CCN(c1cc(Cl)cc(C(=O)NCc2ccn(C)n2)c1C)C1CCOCC1 [Compound 28, 5-chloro-3-(ethyl(tetrahydro-2H-pyran-4-yl)amino)-2-methyl-N-((1-methyl-1H-pyrazol-3-yl)methyl)benzamide]",14.8 µM
6,"CCN(c1cc(Cl)cc(C(=O)NCc2cc(C)on2)c1C)C1CCOCC1 [Compound 29, 5-chloro-3-(ethyl(tetrahydro-2H-pyran-4-yl)amino)-2-methyl-N-((5-methylisoxazol-3-yl)methyl)benzamide]",> 50 µM
7,"CCN(c1cc(Cl)cc(C(=O)NCc2c[nH]cn2)c1C)C1CCOCC1 [Compound 30, N-((1H-imidazol-4-yl)methyl)-5-chloro-3-(ethyl(tetrahydro-2H-pyran-4-yl)amino)-2-methylbenzamide]",0.32 µM
8,"CCN(c1cc(Cl)cc(C(=O)NCc2cc(C)nn2C)c1C)C1CCOCC1 [Compound 31, 5-chloro-N-((1,3-dimethyl-1H-pyrazol-5-yl)methyl)-3-(ethyl(tetrahydro-2H-pyran-4-yl)amino)-2-methylbenzamide]",> 50 µM
